Experimental data reported in patent US20250195490A1, “ALPHA-METHYLENE AND AMINOMETHYL LACTONES AND LACTAMS FOR TREATMENT OF CLOSTRIDIOIDES DIFFICILE INFECTION (CDI)” (Purdue Research Foundation, priority 2022, published 2025).
Values after ≈ are worked out from the molar mass of the structure shown. Like-named read-outs stand apart in the source and are kept apart here.

What was measured:
[1] = system: Ba. fragilis; test: MIC against human normal gut microbiota: Bacteroides fragilis; format: cell-based
Source text: (§1) The activity of the selected lactones against the human gut microbiota was also examined. Microbiota interfere with C. difficile's ability to colonize the gastrointestinal tract and subsequently cause infection. Many antibiotics inhibit/kill the endogenous microflora, which permits enhanced colonization by C. difficile and infection. Three different bacterial species that are present in the gut microflora were used in this experiment; Bifidobacterium (anaerobic Gram-positive bacteria), Bacteroides (anaerobic Gram-negative bacteria) and Lactobacillus (microaerophilic Gram-positive bacteria). Ideal compounds/drugs are those with selective antibacterial activity against C. difficile so as to protect the indigenous microflora present in the GI tract from being damaged/killed (which will exacerbate infections caused by C. difficile).
(§2) Bifidobacterium and Bacteroides were first grown for 48 hours at 37° C., anaerobically, using brain heart infusion supplemented (BHIS) agar (brain heart infusion agar supplemented with hemin, vitamin K and L-cysteine). Lactobacillus was cultivated on MRS agar and incubated in the presence of 5% CO2 for 48 hours at 37° C. Each bacterium was suspended in phosphate-buffered saline (PBS) to achieve 0.5 McFarland standard and subsequently diluted in brain heart infusion supplemented broth (for Bifidobacterium and Bacteroides) or in MRS broth (for Lactobacillus) to achieve a bacterial inoculum of approximately 5×10^5 CFU/mL. Bacteria were then seeded in 96-well plates containing serial dilutions of the compounds and incubated for 48 hours. MICs reported in Table 4 are the minimum concentration of compound/control drug that inhibited the visual growth of bacteria.

[2] = system: normal gut microflora; test: Activity against normal human gut microflora (panel statement); format: cell-based
Source text: as §1
Bifidobacterium and Bacteroides were first grown for 48 hours at 37° C., anaerobically, using brain heart infusion supplemented (BHIS) agar (brain heart infusion agar supplemented with hemin, vitamin K and L-cysteine). Lactobacillus was cultivated on MRS agar and incubated in the presence of 5% CO2 for 48 hours at 37° C. […]

[3] = system: L. reuteri; test: MIC against human normal gut microbiota: L. reuteri; format: cell-based, Lactobacillus reuteri; conditions: Limosilactobacillus reuteri; L. reuteri HM 120; read-out: MIC
Source text: as §1, §2

[4] = system: Ba. dorsei; test: MIC against human normal gut microbiota: Bacteroides dorsei; format: cell-based
Source text: as §1, §2

[5] = system: Clostridioides difficile; test: MIC by broth microdilution against Clostridioides difficile (Table 1); format: cell-based; conditions: Clostridioides difficile, BAA1870; anaerobic, 48 hours; strain BAA-1870; read-out: MIC Clostridioides difficile
Description: Method: The minimum inhibitory concentration (MIC) of the compounds and control drugs, linezolid (antibiotic), vancomycin (antibiotic), 5-fluorocytosine (5-FC, antifungal drug), and fluconazole (antifungal drug) was determined using the broth microdilution method according to the guidelines outlined by the Clinical and Laboratory Standards Institute (CLSI) against clinically relevant bacterial (methicillin-resistant Staphylococcus aureus (MRSA), vancomycin-resistant Enterococcus faecalis (VRE), vancomycin-resistant Enterococcus faecium (VRE), Clostridioides difficile and Escherichia coli) and fungal (Candida albicans) strains. A solution equivalent to 0.5 McFarland standard was prepared from each strain and diluted in cation-adjusted Mueller-Hinton broth (for S. aureus and E. coli), tryptone soy broth (for E. faecalis), or brain heart infusion broth (for E. faecium) to achieve a bacterial inoculum of about 5×10^5 CFU/mL. C. difficile strains were cultured in brain heart infusion broth supplemented with hemin and vitamin K. C. albicans was diluted in RPMI medium supplemented with 3-(N-morpholino) propanesulfonic acid to achieve a fungal concentration of about 1.5×10^3 CFU/mL. Compounds and control drugs were added in the first row of the 96-well plates and diluted with media containing bacteria (to achieve a concentration gradient ranging from 128 to 1 μg/mL). For MRSA, VRE, and E. coli strains, plates were then incubated aerobically at 37° C. for at least 18 hours. C. albicans was incubated aerobically at 37° C. for 24 hours. Plates containing C. difficile were incubated anaerobically at […] for 48 hours.

[6] = system: Bi. breve; test: MIC against human normal gut microbiota: Bifidobacterium breve; format: cell-based; conditions: Bifidobacterium breve; Bi. breve HM 856; read-out: MIC
Source text: as §1, §2

[7] = system: L. gasseri; test: MIC against human normal gut microbiota: L. gasseri; format: cell-based, Lactobacillus gasseri; conditions: Lactobacillus gasseri; L. gasseri HM 407; read-out: MIC
Source text: as §1, §2

[8] = system: L. crispatus; test: MIC against human normal gut microbiota: L. crispatus; format: cell-based, Lactobacillus crispatus; conditions: Lactobacillus crispatus, read-out: MIC
Source text: as §1, §2

[9] = system: Bi. longum; test: MIC against human normal gut microbiota: Bifidobacterium longum; format: cell-based; conditions: Bifidobacterium longum; Bi. longum HM 848; read-out: MIC
Source text: as §1, §2

[10] = system: clinically important Clostridioides difficile strains; test: MIC against clinically important Clostridioides difficile strains; format: cell-based; conditions: Clostridioides difficile, read-out: MIC
Description: (§3) The antibacterial activity of compounds 48, 50, 51, 61 and 85 against a panel of Clostridioides difficile strains was evaluated. A bacterial solution equivalent to 0.5 McFarland standard was prepared and diluted in brain heart infusion broth supplemented with hemin and vitamin K. Compounds and control drugs were added in the first row of 96-well plates and serially diluted with media containing bacteria (to achieve a concentration gradient ranging from 128 to 1 μg/mL). Plates were then incubated anaerobically at […] for 48 hours.

[11] = system: hypervirulent Clostridioides difficile strains; test: MIC against hypervirulent Clostridioides difficile strains; format: cell-based; conditions: Clostridioides difficile
Description: as §3

[12] = system: L. casei; test: MIC against human normal gut microbiota: L. casei; format: cell-based, Lactobacillus casei; conditions: Lacticaseibacillus casei; L. casei HM 334; read-out: MIC
Source text: as §1, §2

Structure (SMILES): Cc1ncc([N+](=O)[O-])n1CCO [Metronidazole, reference compound]
- MIC ([1]; Ba. fragilis HM 710): ≤1 µg/mL
- MIC ([1]; Ba. fragilis HM 711): ≤1 µg/mL
- MIC ([1]; Ba. fragilis HM 714): ≤1 µg/mL
- MIC ([1]; Bacteroides fragilis, Ba. fragilis HM 709, read-out: MIC): ≤ 1 µg/mL
- inhibition of bacteria of the normal gut microflora [2]: inhibited growth of species of Bacteroides and Bifidobacterium
- MIC [3]: > 128 µg/mL
- MIC ([4]; Ba. dorsei HM 717): ≤1 µg/mL
- MIC ([4]; Bacteroides, Ba. dorsei HM 29, read-out: MIC): ≤ 1 µg/mL
- MIC [5]: 0.25 µg/mL (≈ 1.46 µM)
- MIC [6]: ≤ 1 µg/mL
- MIC [7]: > 128 µg/mL
- MIC ([8]; L. crispatus HM 375): > 128 µg/mL
- MIC ([8]; L. crispatus HM 421): > 128 µg/mL
- MIC [9]: 64 µg/mL (≈ 374 µM)
- MIC ([10]; CD strain 16): 0.25 µg/mL (≈ 1.46 µM)
- MIC ([10]; CD strain 18): ≤ 0.06 µg/mL
- MIC ([10]; CD strain 19): 0.125 µg/mL (≈ 0.73 µM)
- MIC ([10]; CD strain 1801): 0.125 µg/mL (≈ 0.73 µM)
- MIC ([10]; CD strain 43255): 0.125 µg/mL (≈ 0.73 µM)
- MIC ([10]; CD strain P6): ≤ 0.06 µg/mL
- MIC ([10]; CD strain P7): 0.25 µg/mL (≈ 1.46 µM)
- MIC ([10]; CD strain P13): ≤ 0.06 µg/mL
- MIC ([10]; CD strain P19): 0.25 µg/mL (≈ 1.46 µM)
- MIC ([11]; CD strain 81): 0.125 µg/mL (≈ 0.73 µM)
- MIC ([11]; CD strain 82): 0.25 µg/mL (≈ 1.46 µM)
- MIC ([11]; CD strain 83): 0.25 µg/mL (≈ 1.46 µM)
- MIC ([11]; CD strain 84): 0.25 µg/mL (≈ 1.46 µM)
- MIC ([11]; CD strain 85): 0.25 µg/mL (≈ 1.46 µM)
- MIC ([11]; CD strain 86): 0.125 µg/mL (≈ 0.73 µM)
- MIC ([11]; CD strain 87): 0.125 µg/mL (≈ 0.73 µM)
- MIC ([11]; CD strain 90): 0.125 µg/mL (≈ 0.73 µM)
- MIC ([11]; CD strain 49279): 0.125 µg/mL (≈ 0.73 µM)
- MIC ([11]; CD strain 49287): ≤ 0.06 µg/mL
- MIC ([11]; CD strain 49291): 0.125 µg/mL (≈ 0.73 µM)
- MIC [12]: > 128 µg/mL
